Columns and labels:
[1] = Binding affinity against sigma receptor from guinea pig brain, using [3H](+)-pentazocine as radioligand.
[2] = Binding affinity against sigma receptor from guinea pig brain, using [3H](+)-3-PPP as radioligand.
[3] = target: Sigma non-opioid intracellular receptor 1 (Cavia porcellus) (UniProt Q60492); experiment: Binding affinity against sigma receptor from guinea pig brain, using [3H](+)-pentazocine as radioligand.
[4] = Binding affinity against phencyclidine (PCP) receptor from guinea pig brain, using [3H]TCP as radioligand.

Sequence of Sigma non-opioid intracellular receptor 1 (Cavia porcellus) (Q60492 whole entry, looked up): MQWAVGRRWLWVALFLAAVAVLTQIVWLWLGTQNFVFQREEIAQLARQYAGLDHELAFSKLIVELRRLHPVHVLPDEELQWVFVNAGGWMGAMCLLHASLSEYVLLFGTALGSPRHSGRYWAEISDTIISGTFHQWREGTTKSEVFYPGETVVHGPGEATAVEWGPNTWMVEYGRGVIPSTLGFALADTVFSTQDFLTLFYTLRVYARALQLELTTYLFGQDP

Row | SMILES | Ki [1] [nM] | Ki [2] [nM] | Ki [3] [nM] | Ki [4] [nM]
1 | FCCCCCN1CCN(CCc2ccc(Cl)c(Cl)c2)CC1 | 0.52 | 0.86 | – | –
2 | FCCCN(CCc1ccc(Cl)c(Cl)c1)CCN1CCCC1 | – | 4.22 | – | –
3 | FCCCN1CCN(CCc2ccc(Cl)c(Cl)c2)CC1 | – | – | 0.39 | –
4 | Clc1ccc(CCN2CCN(CCCI)CC2)cc1Cl | 1.2 | 1.3 | – | –
5 | CCCCCN1CC[C@@]2(C)c3cc(O)ccc3CC1[C@H]2C [(6R,11S)-6,11-Dimethyl-3-pentyl-1,2,3,4,5,6-hexahydro-2,6-methano-benzo[d]azocin-8-ol] | – | – | – | 9040
